Assay results: a melting point compilation (Tetko et al.; mined from patent text by program, amines drawn as free bases though some values may be those of a salt)

SMILES	melting point [°C]
CC(C)(C)[Si](C)(C)Oc1ccc2cc3c(cc2c1)C(=O)c1cc2ccc(O[Si](C)(C)C(C)(C)C)cc2cc1C3=O	< 270
Cc1cccc(C)c1NC(=O)CN1CCNC(C)C1c1ncnc2sccc12 (centres undefined)	184 to 185
CCOc1c(OC)c(OC)cc(C(=O)OC)c1-c1c(C(=O)OC)cc(OC)c2c1OCO2	93 to 94
CCOc1ccc([N+](=O)[O-])cc1-c1nc2cccnc2c(=O)[nH]1	251 to 254
Cc1cc(C(F)(F)F)nn1CC(=O)N1CCC(C(N)=S)CC1	185 to 186
COc1cccc2c(C#Cc3ccccc3)c3cccc(OC)c3c(C#Cc3ccccc3)c12	178 to 180
Cc1nc2c(cc1C(=O)O)CCCC2	196 to 197
N#CNC(=NC1CCN(Cc2ccccc2)CC1)N1Cc2ccccc2C1	191 to 192
CSC(=O)C(C#N)C(=O)Nc1ccc(C(F)(F)F)cc1 (centres undefined)	196 to 198
Cc1ccc(COc2ncc(F)c(NS(C)(=O)=O)n2)cc1	145 to 148
CCCn1c(COCC)nc2c(N)nc3cc(OC4CCN(C(=O)NC(C)C)CC4)ccc3c21	163 to 164
CCn1cc(-c2ccccc2)c2ncccc2c1=O	142
Oc1c(C/C=C/c2ccc(OCc3ccccc3)c(OCc3ccccc3)c2)c(OCc2ccccc2)cc(OCc2ccccc2)c1Cc1ccccc1	93 to 95
CCNC(=O)Nc1cc(-c2c(-c3ccc(F)c(C)c3)nc3cc(C(C)(C)C)c(Cl)nn23)ccn1	246 to 247
CN1CCN(c2ccc(S(=O)(=O)Oc3ccccc3)c(Cl)c2[N+](=O)[O-])CC1	94 to 95
CC(C)Oc1ccc(-c2nn(C(C)c3oc4ccccc4c(=O)c3-c3cccc(F)c3)c3ncnc(N)c23)cc1 (centres undefined)	224 to 226
COc1ccc(Oc2ccc(OCc3ccccc3)cc2)c([N+](=O)[O-])c1	88 to 89.5
CCCCCCCCCCCC(CC(O)C(C(=O)OC(C)(C)C)S(=O)c1ccc(C)cc1)OC1CCCCO1 (centres undefined)	97 to 98
CCCC(=O)OC1(C(C)=O)C(C)CC2C3CCC4=CC(=O)C=CC4(C)C3(Cl)C(=O)CC21C (centres undefined)	154 to 155
CCC(CC)C1CC(=O)C(C(=O)NS(=O)(=O)c2ccc(C)cc2)C(=O)C1 (centres undefined)	112
CC1=CC(c2cccc(F)c2)C2=C(CCCC2=O)N1 (centres undefined)	216 to 218
CC(C)(C)OC(=O)N1CCN(C(=O)C2C3CCC(O3)C2C(=O)O)CC1 (centres undefined)	206 to 208
CNc1cc(Oc2ccc3c(c2)OCCN3)ncn1	153

SMILES	melting point [°C]
O=C(O)CCCCCSC1=CCCC1=O	77.5 to 78
O=C(c1ccccc1)c1cc([N+](=O)[O-])ccc1NCc1ccccc1	120
N#CC(C#N)=C1N(CCCN2CCCCC2)CCN1CCN1CCCCCC1	80 to 86
O=c1c2c(nc3ccc(Br)cn13)C(=Cc1ccc(Cl)cc1Cl)CC2	164 to 166
Cc1cn(-c2cc(N)cc(C(F)(F)F)c2)cn1	123 to 124
O=C1N=c2cc(O)c(O)c(O)c2=NC1=O	> 350
CC(=O)C1=C(O)C(=C(C)Nc2ccc(NC(N)=O)cc2)C(=O)OC1=O	250 to 253
CCCNC(=O)C1(CCCCSc2ccccc2)c2ccccc2-c2ccccc21	50 to 53
CCOP(=O)(/C=C/c1cn(-c2ccccc2)nc1OCc1ccc(OCc2nc(N3CCC(C(=O)O)CC3)sc2C)c(OC)c1)OCC	159 to 160
COc1ccc(C(=O)Nc2ncnc3c2ncn3[C@H]2CC[C@H](CC(=O)O)C[C@@H]2NC(=O)OC(C)(C)C)cc1	238 to 239
O=C(CN1CCN(c2ccc(C(=O)O)cc2)CC1)Nc1ccc(Cl)cc1	263 to 265
CC(=O)Nc1cc(C(C)(C)C)ccc1N1CCOCC1	112 to 113
CCOC(=O)/C=C/c1cc(-n2ncnn2)cc(C)c1N	162 to 165
Cc1cccnc1NC(=O)Nc1cccc2c1C1CC(=O)CCN1C2=O (centres undefined)	> 260
CCC(C)(C)Nc1c(NCc2c(C)cccc2C)c(=O)c1=O	227 to 231
COC(=O)c1ccc(NC(=O)C(N)c2ccc3c(c2)C(C)(C)CCC3(C)C)n1C (centres undefined)	143 to 144
C[C@@H](O)c1nccc(N2CCc3ccc(S(=O)(=O)N(C)C)cc3C2)n1	120 to 122
COc1ccc(OC)c(C=O)c1C	61 to 61.5
CCOC(=O)c1c([N+](=O)[O-])c(-c2ccc(Cl)cc2)n(OC)c1C(F)(F)F	90 to 92
COc1cc(OC)c(OC)cc1C=CC=O	140
CCCc1c(OCCCOc2cc(O)c(-c3ccc(F)cc3)cc2CC)cccc1Oc1cc(F)ccc1C(=O)O	62 to 64
Nc1nc2ccccc2c2c1ncn2CCOCC#Cc1cccs1	148 to 150
Cc1ccc(C=NNC(=O)OC(C)(C)C)cc1C	168 to 169

SMILES	melting point [°C]
Cc1noc(-c2ccc(C(F)(F)F)cc2)c1C(=O)Nc1ccccc1C(=O)O	205 to 206
COc1cc(Nc2nccc(-c3ccc(NCCCNC(C)C)nc3)n2)cc(OC)c1OC	124 to 125
COc1cc(-c2nc3ccc(OCC(C)N(C)C)cc3n2Cc2ccccc2Br)cc(OC)c1OC (centres undefined)	152
Cc1cccc(C)c1NC(=O)CN1CCCC1=O	153 to 154
Cn1c(-c2ccccc2Sc2nc3ccccc3[nH]2)nc2ccccc21	246 to 247
CCc1cc(C(=O)c2ccccc2Cl)c(-n2c(C)nnc2CNC(=O)Cc2ccccc2)s1	153 to 155
COc1ccc2oc(C(N)=O)c(-c3nnn[nH]3)c2c1	205
CC(O)(CF)C(=O)Nc1ccc(C(=O)c2ccccc2)cc1 (centres undefined)	146 to 148
CC1(C)C2CC[C@]1(C)C(=O)C(C(=O)Nc1cccc(C(F)(F)F)c1)C2=O (some centres undefined)	60 to 62
CC(C)(C)OC(=O)ON1C(C)(C)CC(OC(=O)c2ccccc2)CC1(C)C	109 to 111
c1ccc2c(c1)Oc1ccccc1C2NCCn1ccnc1	90 to 92
O=C(OCc1ccccc1)ON1C(=O)CC2(CCN(C(=O)OCc3ccccc3)CC2)C1=O	114
Cn1nc2ccc(OCCCN3CCC(OC(c4ccccc4)c4ccccc4)CC3)nn2c1=O	139 to 140
COc1ccc2cc(C3=C(CC(=O)O)CCCC3=O)ccc2c1Br	165 to 166
O=c1c2cc(O)c(O)cc2c2cc(O)c(O)cc2n1Cc1ccc(Cl)c(Cl)c1	318
CC(C)c1c(/C=C/I)c(-c2ccc(F)cc2)nc2ccccc12	145 to 147
FC(F)(F)Sc1ccc(C=Cc2nc(COc3ccc(CCCCn4ccnn4)cc3)co2)cc1	144 to 145
CCCc1cc(=O)oc2c(C=O)c(O)cc(O)c12	236 to 237
Cc1oc(-c2ccccc2)nc1COc1ccc(Cn2cc(/C=C/C(=O)O)cn2)cc1	186 to 187
COc1ccc2[nH]cc(C=C3SC(=S)N(CC(=O)O)C3=O)c2c1	266
CC1COc2c(F)c(F)c([N+](=O)[O-])c3c(=O)[nH]c(=O)n1c23 (centres undefined)	286 to 288
FC1CNC(c2ccc3c(c2)OCO3)c2[nH]c3ccccc3c21 (centres undefined)	172
NNc1nc(C(F)(F)F)nc(-c2ccccc2)c1-c1ccccc1	182 to 186
